Data taken from article PMC6391272, “Rex in Caldicellulosiruptor bescii: Novel regulon members and its effect on the production of ethanol and overflow metabolites” (MicrobiologyOpen, 2018).

Target: T1, Rex (recombinant Rex, rRex) (Caldicellulosiruptor bescii, UniProt B9MPL7)
T1 construct: E. coli T7 Express; purified with IMPACT kit protocol
T1 sequence (B9MPL7 1-217): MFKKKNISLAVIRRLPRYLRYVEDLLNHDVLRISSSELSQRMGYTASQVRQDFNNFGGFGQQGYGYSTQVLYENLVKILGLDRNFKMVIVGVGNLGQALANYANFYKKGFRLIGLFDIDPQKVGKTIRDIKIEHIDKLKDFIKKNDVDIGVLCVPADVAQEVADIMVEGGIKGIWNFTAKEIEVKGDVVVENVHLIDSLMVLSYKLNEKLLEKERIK
Test: electromobility shift assay (biotin-labelled […] bp operator dsDNA)
Conditions: room temperature, 30 min; loss of operator DNA binding; NADH/NAD+ cofactor pool 1-100 umol/L

NC(=O)C1=CN([C@@H]2O[C@H](COP(=O)(O)OP(=O)(O)OC[C@H]3O[C@@H](n4cnc5c(N)ncnc54)[C@H](O)[C@@H]3O)[C@@H](O)[C@H]2O)C=CC1 [NADH]
electromobility shift assay (biotin-labelled 50 bp operator dsDNA): DNA binding by Rex is disrupted by NADH and is sensitive to NADH/NAD ^+ ratio
